Several values for one entry are separate records, joined by “and”; a condition that tells them apart may be missing. Identical values can stand only once.
Tests used:
CRBN = target: T1, CRBN (Homo sapiens, UniProt Q96SW2); test: CRBN fluorescence polarization (FP) displacement assay; assay type: binding; parameters: key: % activity normalized to DMSO (0) and CC-220 (100) controls
T1 construct: 6XHis (N)
Protocol: The assay cocktail was prepared by combining 6XHis-CRBN-DDB1 protein (200 nM) and Cy5-O-Len probe (30 nM) in 20 mM HEPES pH 7, 150 mM NaCl, 0.005% Tween-20 assay buffer. […] Then 20 μL of the assay cocktail was dispensed to wells of the assay plate with a Multidrop Combi Reagent Dispenser (Thermo Fisher Scientific, USA). The plates were incubated in the dark for 1 h at room temperature and then read on an Envision plate reader (Perkin Elmer, USA). Raw intensity values for each compound at each concentration were normalized to obtain % activity using the following equation: 100×[(mean(negctrl)–compound)/(mean (negctrl)–mean (posctrl))], and then pooled from replicate experiments prior to fitting. Here, negctrl and posctrl refer to the negative (DMSO) and positive controls (CC-220) on each plate. Dose-response curves were fit to the Hill equation using the GraphPad Prism (version 10).

CK1α = CK1α (Homo sapiens, UniProt P48729+Q96SW2); test: CK1α immunoblotting in MOLM-13 cells; assay type: cell-based; parameters: immunoblot analysis of CK1α in MOLM-13 cells following treatment with increasing concentrations of SJ7095 over 4 h; endogenous in cells; host or cells: MOLM-13 (DSMZ ACC 554)
Protocol: Frozen pellets of ~1 million cells were lysed in 150 µl of SDS lysis buffer (60 mM Tris/HCl pH 7, 10% glycerol, 2% SDS, 5% beta-mercaptoethanol, 0.02% bromophenol blue, 0.5% protease and phosphatase inhibitor cocktail (Sigma Aldrich)). When cells were resuspended, samples were heated for 3 min at 99 °C then put on ice. Samples were then fragmented by sonication for 10 0.5-s pulses (550 Sonic Dismembrator, Fisher Scientific) and heated again at 99 °C for 2 min. 15 μl of each sample was added to the wells of a 4–20% polyacrylamide gel (Bio-Rad). A mixture of 2 μl of Precision Plus Protein Unstained Standards and 2 μl of Precision Plus Protein All Blue Standards (Bio-Rad) was used for the size marker. After electrophoresis, gels were transferred to nitrocellulose membrane using the Bio-Rad Trans-Blot Turbo system on the mixed molecular weight setting. Membranes were blocked for 1 h in Li-Cor Intercept Blocking Buffer then probed overnight at 4 °C with primary antibody, at 1:1000 dilution or 1:2000 dilution for actin, in Li-Cor Intercept Antibody Diluent. The following morning, membranes were washed three times for 5 min with TBS + 0.05% Tween-20, probed with fluorescent secondary antibodies (goat anti-rabbit IRDye 800CW and goat anti-mouse IRDye 680RD, Li-Cor) for 1 h at room temperature in the dark at 1:10,000 dilution, and washed again 3 times. Blots were imaged with the Li-Cor Odyssey CLx and analyzed using Image Studio Version 5.2.

CRBN−/− MOLM-13 cells = test: Wild type versus CRBN−/− MOLM-13 cells (viability, CRBN dependence); assay type: cell-based, human; parameters: key to cell viability, dose-response replicate values: % viability = 100 − % activity (RLU normalized to negative control); details: for cell viability, dose-response replicate values: MOLM-13 CRBN KO
Excerpt: Having identified SJ7095 as a compound with a potent antiproliferative effect in MOLM-13 cells, we next examined whether the observed effect was CRBN-dependent. […] In an orthogonal approach, we tested SJ7095 in wild-type and CRBN-knockout MOLM-13 cells in a cell viability assay (Supplementary Fig. 1b).
CRBN^−/− MOLM-13 cells were created using CRISPR-Cas9 technology. Briefly, 1 million MOLM-13 cells were transiently transfected with precomplexed ribonuclear proteins (RNPs) consisting of 400 pmol of chemically modified sgRNA (Synthego), 135pmol of SpCas9 protein (St. Jude Protein Production Core), and 500 ng of pMaxGFP (Lonza) via nucleofection (Lonza, 4D-Nucleofector™ X-unit) using solution SF and program EO100 in a 100 µl cuvette according to the manufacturer’s recommended protocol. Transfected cells (GFP+) were single-cell sorted by flow cytometry (St. Jude Flow Cytometry and Cell Sorting Shared Resource) into 96-well tissue culture-treated plates 5 days post nucleofection. Cells were clonally expanded and screened for the desired targeted modification (out-of-frame indels) via targeted deep sequencing using gene-specific primers with partial Illumina adapter overhangs as previously described. Genotyping of clones was performed using CRIS.py[59]. Knockout clones were identified as clones containing only out-of-frame indels. PowerPlex® Fusion System (Promega) was used to confirm final clone identification (Hartwell Center for Biotechnology at St. Jude). All clones tested negative for mycoplasma by the MycoAlert^TMPlus Mycoplasma Detection Kit (Lonza). CRBN knockout confirmed by immunoblot (Supplementary Material).
MOLM-13 cells were plated in Corning 8804BC white 384-well assay plates at the appropriate cell number per well and incubated overnight at 37 °C in a humidified 5 % CO2 incubator. Compounds were transferred to the assay plate from a dose-response plate using a Labcyte Echo 650 Acoustic Liquid Handler (Beckman Coulter , USA). Cytotoxicity was determined following 72 h of incubation using Promega’s CellTiter-Glo reagent according to the manufacturer’s recommendation.
Luminescence was measured on the Envision plate reader (PerkinElmer, USA). Raw luminescence relative light unit (RLU) values for each compound at each concentration were normalized to obtain % activity using the following equation (1): 100 × [(mean(negctrl) – compound)/(mean (negctrl) – mean (posctrl))]. The % activity was converted to % viability using the following equation (2):
(100 – % activity), and then pooled from replicate experiments prior to fitting. Here, negctrl and posctrl refer to the negative (DMSO) and positive controls (staurosporine) on each plate. Dose-response curves were fit to the Hill equation using the GraphPad Prism (version 10). […]

T1 sequence (Q96SW2 whole entry): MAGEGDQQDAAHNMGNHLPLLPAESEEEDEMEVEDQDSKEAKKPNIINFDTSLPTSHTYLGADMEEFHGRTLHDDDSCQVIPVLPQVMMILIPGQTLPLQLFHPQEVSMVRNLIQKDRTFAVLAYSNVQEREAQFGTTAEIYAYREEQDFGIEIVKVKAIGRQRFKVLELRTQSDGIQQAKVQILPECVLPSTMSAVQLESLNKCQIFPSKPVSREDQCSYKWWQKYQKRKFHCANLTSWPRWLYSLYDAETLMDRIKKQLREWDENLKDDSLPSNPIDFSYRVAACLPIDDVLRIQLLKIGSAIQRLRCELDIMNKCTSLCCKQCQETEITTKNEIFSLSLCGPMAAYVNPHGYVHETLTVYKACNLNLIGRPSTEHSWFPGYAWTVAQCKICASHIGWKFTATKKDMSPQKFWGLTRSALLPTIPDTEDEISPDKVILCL
T1 sequence (Q16531 whole entry partner): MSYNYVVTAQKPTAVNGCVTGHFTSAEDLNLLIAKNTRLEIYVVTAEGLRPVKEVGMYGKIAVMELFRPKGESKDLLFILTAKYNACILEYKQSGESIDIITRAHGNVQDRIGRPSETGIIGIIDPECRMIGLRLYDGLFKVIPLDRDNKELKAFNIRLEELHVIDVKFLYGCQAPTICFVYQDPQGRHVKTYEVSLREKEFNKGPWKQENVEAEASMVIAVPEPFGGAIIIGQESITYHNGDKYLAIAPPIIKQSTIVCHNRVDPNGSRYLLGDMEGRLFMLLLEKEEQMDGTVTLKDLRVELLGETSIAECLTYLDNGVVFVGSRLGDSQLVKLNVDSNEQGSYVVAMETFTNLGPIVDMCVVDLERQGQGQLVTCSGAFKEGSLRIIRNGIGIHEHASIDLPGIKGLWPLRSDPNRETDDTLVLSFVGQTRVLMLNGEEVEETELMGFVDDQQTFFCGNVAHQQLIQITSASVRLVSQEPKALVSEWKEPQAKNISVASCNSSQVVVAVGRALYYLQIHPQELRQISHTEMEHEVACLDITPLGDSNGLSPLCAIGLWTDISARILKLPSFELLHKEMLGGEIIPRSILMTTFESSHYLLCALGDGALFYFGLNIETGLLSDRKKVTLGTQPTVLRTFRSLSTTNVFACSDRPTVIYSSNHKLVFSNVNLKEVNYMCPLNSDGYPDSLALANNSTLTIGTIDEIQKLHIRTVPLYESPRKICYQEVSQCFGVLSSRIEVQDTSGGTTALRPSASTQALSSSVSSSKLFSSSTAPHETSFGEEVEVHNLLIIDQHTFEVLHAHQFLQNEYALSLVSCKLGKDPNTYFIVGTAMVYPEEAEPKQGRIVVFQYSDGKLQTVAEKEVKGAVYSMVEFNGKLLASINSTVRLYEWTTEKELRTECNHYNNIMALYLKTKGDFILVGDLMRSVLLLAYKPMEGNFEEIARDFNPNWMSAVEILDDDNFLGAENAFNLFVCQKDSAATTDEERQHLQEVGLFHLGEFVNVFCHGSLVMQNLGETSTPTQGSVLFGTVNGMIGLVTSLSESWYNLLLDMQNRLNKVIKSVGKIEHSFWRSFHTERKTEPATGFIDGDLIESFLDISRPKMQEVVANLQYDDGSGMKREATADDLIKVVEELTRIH
Chain of CK1α (P48729 whole entry, the tested form may be a part): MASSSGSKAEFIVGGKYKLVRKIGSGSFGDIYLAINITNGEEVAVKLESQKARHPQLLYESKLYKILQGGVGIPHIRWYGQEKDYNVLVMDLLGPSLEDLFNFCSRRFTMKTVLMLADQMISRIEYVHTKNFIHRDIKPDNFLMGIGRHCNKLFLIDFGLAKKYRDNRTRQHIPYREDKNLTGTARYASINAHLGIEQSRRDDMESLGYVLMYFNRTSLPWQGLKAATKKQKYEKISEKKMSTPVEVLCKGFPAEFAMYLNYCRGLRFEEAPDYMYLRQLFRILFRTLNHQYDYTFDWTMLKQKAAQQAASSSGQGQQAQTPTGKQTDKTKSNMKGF
Chain of CK1α (Q96SW2 whole entry, the tested form may be a part): as the sequence (Q96SW2 whole entry) above
Chain of CK1α (Q16531 whole entry partner, the tested form may be a part): as the sequence (Q16531 whole entry partner) above

CRBN binding FP, Activity (CRBN; SJ7095, [Compound] 0.00309 mM): 8.11 and 10.4932 and 6.274
CRBN binding FP, Activity (CRBN; SJ7095, [Compound] 0.02781 mM): 14.0709 and 18.2061 and 13.5714
CRBN binding FP, Activity (CRBN; SJ7095, [Compound] 0.08344 mM): 25.188 and 27.6328 and 27.8185
CRBN binding FP, Activity (CRBN; SJ7095, [Compound] 0.25033 mM): 29.8604 and 33.1175 and 27.1236
CRBN binding FP, Activity (CRBN; SJ7095, [Compound] 0.75100 mM): 30.8271 and 30.718 and 33.0309
CRBN binding FP, Activity (CRBN; SJ7095, [Compound] 2.25301 mM): 46.2943 and 45.8008 and 46.583
CRBN binding FP, Activity (CRBN; SJ7095, [Compound] 6.75903 mM): 54.5113 and 62.5976 and 51.6216
CRBN binding FP, Activity (CRBN; SJ7095, [Compound] 20.27708 mM): 59.0226 and 67.7395 and 53.7066
CK1α degradation (CK1α; MOLM-13, 100 nM, 4 h): near complete degradation of CK1α
DC50 (CK1α; MOLM-13, 4 h, read-out: CK1α DC50 (immunoblot)): 15 nM
SMILES: O=C1CCC(N2Cc3c(CNC(=O)c4ccc(F)cc4)cccc3C2=O)C(=O)N1 (stereo not drawn) [SJ7095]
Antiproliferative activity in wild-type vs CRBN-knockout MOLM-13 (CRBN−/− MOLM-13 cells): CRBN dependent
cell viability, dose-response replicate values (CRBN−/− MOLM-13 cells; Concentration 0.00019646): 106.764 and 101.3 and 98.2605
cell viability, dose-response replicate values (CRBN−/− MOLM-13 cells; Concentration 0.00058939): 112.453 and 102.748 and 97.5209
cell viability, dose-response replicate values (CRBN−/− MOLM-13 cells; Concentration 0.00176818): 107.1 and 103.949 and 100.448
cell viability, dose-response replicate values (CRBN−/− MOLM-13 cells; Concentration 0.00530453): 108.398 and 94.7486 and 104.144
cell viability, dose-response replicate values (CRBN−/− MOLM-13 cells; Concentration 0.0159136): 99.903 and 106.159 and 104.247
cell viability, dose-response replicate values (CRBN−/− MOLM-13 cells; Concentration 0.0477407): 84.8196 and 104.71 and 103.354
cell viability, dose-response replicate values (CRBN−/− MOLM-13 cells; Concentration 0.143222): 100.147 and 105.205 and 99.7326
cell viability, dose-response replicate values (CRBN−/− MOLM-13 cells; Concentration 0.429667): 110.361 and 97.2541 and 107.93
cell viability, dose-response replicate values (CRBN−/− MOLM-13 cells; Concentration 1.289): 106.321 and 101.904 and 97.9209
cell viability, dose-response replicate values (CRBN−/− MOLM-13 cells; Concentration 3.867): 79.059 and 84.9366 and 87.8303

From publication PMC10791743, “Selective CK1α degraders exert antiproliferative activity against a broad range of human cancer cell lines” (Nature Communications, 2024)
